Measured values: patent US20090054403A1, “Treatment of Post-Traumatic Stress Disorder” (priority 2007, published 2009)
“Also recorded” adds a separate entry of the source.

Columns and labels:
[1] = tested on: blood pressure, heart rate, motor activity; assay: Radio-telemetry blood pressure, heart rate, motor activity in normotensive rats, 7 days; type: in vivo, normotensive Wistar rats (Crl:COBS(WI)BR); conditions: 10 mg/kg po
Procedure: Male Crl:COBS(WI)BR rats of 15 weeks old were used. Twenty-four rats were chronically implanted with telemetry implants (TA11PA-C40, Data Sciences, Inc., St. Paul, Minn.) for measurement of arterial blood pressure, heart rate and motor activity. The rat was anesthetized with pentobarbital sodium (60 mg/kg, ip) and its abdomen shaved. Under aseptic conditions, an incision was made on midline. The abdominal aorta was exposed, and cannulated with the catheter of a telemetry transmitter unit. After the transmitter was sutured to the abdominal musculature, the skin was closed. Each rat was allowed to recover for at least 2 weeks before being subjected to drug administration. Three days prior to the start of the experiment, the rats were randomly divided into 4 treatment groups: Vehicle (p.o.), Hydralazine (10 mg/kg, p.o.), nepicastat (30 mg/kg, p.o.), nepicastat (100 mg/kg, p.o.).
Systolic blood pressure (SBP), diastolic blood pressure (DBP), mean blood pressure (MBP), heart rate (HR), and motor activity (MA) were monitored. After the pre-dose values for these parameters were established, respective groups of rats received a 7 day daily treatment of vehicle, nepicastat or hydralazine.
Both nepicastat and hydralazine were prepared in water with traces of Tween 80. All doses were given orally to the rat in 10 ml/kg and were expressed as free base equivalents.
A computerized data collection system was used to continuously collect data on SBP, DBP, MBP, HR, and MA. Data on each rat were collected every 5 min. for 10 sec. These were then averaged hourly and standard errors of the mean (SE) calculated. In this report, only data on MBP, HR and MA were presented. […] Body weights were recorded daily.

parkinsonian symptoms = assay: Parkinsonian clinical rating scale (CRS) in MPTP-lesioned monkeys; type: in vivo, squirrel monkeys (Saimiri sciureus)
Procedure: A total of 24 squirrel monkeys (Saimiri sciureus), fourteen females and ten males were used in this study. The twenty-four animals were randomly assigned to one of four treatment groups, with 6 animals per group. The groups consisted of the following (1) group A: placebo (2) group B: 1 mg/kg/day; (3) group C: 4 mg/kg/day; and (4) group D: 10 mg/kg/day. In Group B, one animal died acutely following MPTP-lesioning, and was not replaced.
Animals were lesioned by the administration of MPTP at a concentration of 2.0 mg/kg (free-base) via subcutaneous injection to achieve a parkinsonian state (see FIGS. 151-156). A post-MPTP lesioning behavioral assessment was carried out 2 to 4 weeks after the last MPTP-Iesioning. Locomotor activity was monitored by IRAM in 60-minute sessions for 3 to 5 days. Clinical behavior (CAS) was assessed by one to three individuals rating over a period of 3 to 5 days.
Animals were tested for response to L-Dopa and the efficacy of drug nepicastat. Testing was carried out 4 to 12 weeks after the last MPTP dose. Twenty-tour squirrel monkeys were randomly assigned to 4 groups; Group A (6 animals) received placebo (water) treatment; Group B (5 animals) received drug nepicastat at 1 mg/kg/day (0.5 mg/kg twice daily); Group C (6 animals) received 4 mg/kg/day (2 mg/kg twice daily); and Group D (6 animals) received 10 mg/kg/day (5 mg/kg twice daily).
L-Dopa was administered at a concentration of either 2.5, 5, or 7.5 mg/kg by oral gavage twice daily (at 10 am and 2 pm) for 7 consecutive days. Behavior was determined by IRAM and CRS. Clinical rating was carried out 60 to 90 minutes following the 10 am morning dose on the last 4 days of treatment. Raters (one to three individuals) were blinded to the different treatment groups. IRAM assessment were preformed for 90 minutes immediately following drug administration at 2 pm on the last 2 to 5 days of drug treatment. There was a minimum 2 day washout period between each treatment dose.
Drug nepicastat or water (as placebo) was administered for 12 days following a minimum 2 day washout after L-Dopa dosing. Drug was administered twice daily at 10 am and 2 pm by oral gavage. Behavior was rated by IRAM and CRS. The CRS was conducted in the morning, 60 to 90 minutes after the 10 am dose of nepicastat on the last 5 days of drug treatment. Raters (one to three individuals) were blinded to the different treatment groups. IRAM assessments were preformed for 90 minutes immediately following drug administration at 2 pm on the last 5 days of drug treatment.
Eight parkinsonian features were rated in each animal and the total score was derived from the sum of these eight features. […]

serum T3 and T4 levels = assay: Thyroid function (serum T3, T4) in iodine-deficient rats, 10 days; type: in vivo, Sprague-Dawley rats; conditions: for effect on serum T3 and T4 levels: nepicastat 2.0 and 6.2 mg/kg b.i.d., methimazole 1 mg/kg b.i.d., po, 10 days
Procedure: Male Sprague-Dawley rats, weighing 180-200 grams, were fed an iodine deficient diet (Purina, 5891C, Lot 1478, 0.066±0.042 mg iodine/kg sample) ad libitum 14 days prior to treatment. Animals were weighed and randomly assigned to one of the following treatment groups (n=12 per group): Nepicastat at 2.0 mg/kg, Nepicastat at 6.2 mg/kg, R, Methimazole at 1 mg/kg, or vehicle at 1 ml/kg. Each group of rats was dosed orally in the evening and the following morning, approximately 12 hours apart, for 10 consecutive days.
Orbital blood samples were taken at day—3, 0, 3, 7, and 9 (day 0 was the first day of dosing). Serum samples were analyzed for T3 and T4 levels using a radioimmunoassay.
To statistically evaluate changes in T3 and T4 levels, a change from baseline was calculated from the day-3 time point. A non-parametric two-way within subject analysis of variance (ANOVA) was conducted. Also a one-way ANOVA was performed to detect if a significant difference from control occurred. Pairwise analyses between controls and each treatment group were carried out using Fisher's LSD strategy to control the experiment-wise error rate. For statistical analysis of catecholamine levels, a one-way ANOVA with factor DOSE was performed. Pairwise analyses between treated and controls at each dose were carried out using Fisher's LSD strategy to control the experiment-wise error rate.

[2] = Plasma levels of nepicastat and N-acetyl metabolite in dogs, 2 mg/kg b.i.d.; type: in vivo, beagle dogs; conditions: after nepicastat 2 mg/kg bid, any of the days
Procedure: Male Beagle dogs (Marshall farms, North Rose, N.Y.) weighing between 9-16 kg were used in the study. The animals were allowed water ad libitum and given food once daily at ˜10.00 AM. Animals were randomly assigned to one of the following treatment groups (n=8/group): placebo (empty capsule), or nepicastat at 2 mg/kg b.i.d (4 mg/kg/day). Each animal received 2 doses daily, morning and afternoon (8-10 hours apart). Daily blood samples (10 ml) were drawn 6 h after the AM dose for measurement of plasma levels of nepicastat and catecholamines. The blood was collected in tubes containing heparin and glutathione and centrifuged at −4° C. within 1 h of collection. The plasma was separated and divided into two samples, one for the measurement of plasma catecholamines and the other for analysis of nepicastat.
Plasma NE, DA and EPI were anaylysed by HPLC using electrochemical detection. Plasma concentration of nepicastat was determined by HPLC using electrochemical detection.

[3] = tested on: mean arterial pressure and heart rate; assay: Heart rate and mean arterial pressure in restrained SHR with SCH-23390 pretreatment; type: in vivo, spontaneous hypertensive rats; conditions: 200 μg/kg iv, 15 min post-iv period
Description: Male, spontaneous hypertensive rats (280-345 g; Charles River Labs, Kingston, N.Y.) were fasted overnight then anesthetized with ether. A femoral artery and femoral vein were cannulated with PE50 tubing for recording of blood pressure and administration of compounds, respectively. Animals were then placed in MAYO restrainers and their feet loosely taped to the restrainer. Heparinized saline (50 units sodium heparin/ml) was used to maintain patency of each cannula throughout the experiment. The following parameters were continuously recorded using Modular Instruments MI^2 BioReport™ software installed on an IBM personal computer: mean arterial pressure (MAP), heart rate (HR), and the change from baseline for each parameter at specified time points in the experiment.
All compounds were dissolved on the day of use. nepicastat was dissolved in deionized water (vehicle) to a free base concentration of 1 mg/ml. Oral dosing volume for nepicastat or vehicle was 10 ml/kg. SCH-23390 was dissolved in saline (vehicle) to a free base concentration of 0.2 mg/ml. […] or saline were administered intravenously as a bolus in a volume of 1.0 ml/kg followed by 0.2 ml flush of isotonic saline.
Following surgical preparation, each animal was allowed a minimum one hour recovery period. Animals were randomly assigned to four treatment groups: vehicle (iv)/vehicle (po); vehicle (iv)/nepicastat (po); SCH-23390 (iv)/vehicle (po); or SCH-23390 (iv)/nepicastat (po). Once animals were stabilized (minimum one hour), baseline blood pressure and heart rate was determined by taking an average of each parameter over a 15 min period of time. Once baseline blood pressure and heart rate were established, animals were dosed intravenously with either SCH-23390 (200 μg/kg) or vehicle (saline, 1 ml/kg). Fifteen minutes later, animals were orally dosed with either nepicastat (10 mg/kg) or vehicle (deionized water, 10 ml/kg).
Recorded parameters were measured 15 min prior to intravenous dosing to establish baseline blood pressure and heart rate. Recorded parameters were then measured at 5, 10, and 15 min following intravenous administration of SCH-23390 or vehicle. Following oral administration of nepicastat or vehicle, recorded parameters were measured at 15, 30, 60, 90, 120, 150, 180, 210, and 240 min.
At the end of the experiment, each animal was anesthetized with halothane and euthanized via decapitation. The cortex, left ventricle (apex), and mesenteric artery were dissected out, weighed, and fixed in 0.4 M perchloric acid. […] Blood pressure and heart rate were analyzed separately. The change from baseline for blood pressure and heart rate were analyzed by an analysis of variance (ANOVA) with effects for treatment, time, and their interaction. […]

blood pressure = assay: Radio-telemetry blood pressure in SHR, up to 30 days; type: in vivo; conditions: 1 mg/kg, p.o.

**Q.** Which results are given for NNc1nncc2ccccc12 [Hydralazine, reference compound]?
**A.** time in which hypotensive effect subsided [1]: 10 h; maximal decrease in MBP ([1]; within 1 hr after dosing on day 1): −24 mmHg

**Q.** For N[C@@H](Cc1ccc(O)c(O)c1)C(=O)O [L-Dopa, reference compound], which “CRS / parkinsonian symptoms compared to post-MPTP (pre-treatment) state” value (parkinsonian symptoms; L-Dopa 2.5 mg/kg) is on record?
**A.** The value was “No groups of animals demonstrated significant improvement; also recorded: no significant effect”.

**Q.** What about the “CRS / parkinsonian symptoms compared to post-MPTP (pre-treatment) state” value (parkinsonian symptoms; L-Dopa 5 and 7.5 mg/kg, except Group B at 5 and Group C at 7.5 mg/kg) of the same compound?
**A.** Its value is “significant improvement; also recorded: significant effect”.

**Q.** With Cn1cc[nH]c1=S [Methimazole, methimazole] as the compound, how does the “reduction in serum levels of T3” value (serum T3 and T4 levels; day 3, 4 h post-dose) read?
**A.** Its value is 31%.

**Q.** And the “reduction in serum levels of T4” value (serum T3 and T4 levels; day 3, 4 h post-dose)?
**A.** Its value is 46%.

**Q.** What about the “reduction in serum levels of T3” value (serum T3 and T4 levels; day 7, 4 h post-dose) of the same compound?
**A.** Its value is 42%.

**Q.** And the “reduction in serum levels of T4” value (serum T3 and T4 levels; day 7, 4 h post-dose)?
**A.** Its value is 58%.

**Q.** And the “reduction in serum levels of T3” value (serum T3 and T4 levels; day 9, 4 h post-dose)?
**A.** Its value is 44%.

**Q.** And the “T4 levels vs vehicle” value (serum T3 and T4 levels; day nine)?
**A.** Its value is “only marginally (p<0.10) lower”.

**Q.** What about the “effect on serum T3 and T4 levels” value (serum T3 and T4 levels) of the same compound?
**A.** Its value is “significantly (p<0.05) lowered T3 levels on all treatment days”.

**Q.** And the “effect on serum T3 and T4 levels” value (serum T3 and T4 levels; listed as methimazole)?
**A.** The value was “significantly reduced”.

**Q.** Which “plasma levels of the N-acetyl metabolite” value [2] does the source give for CC(=O)NCc1c[nH]c(=S)n1[C@H]1CCc2c(F)cc(F)cc2C1 [N-acetyl metabolite of nepicastat] here?
**A.** The value was “No significant levels”.

**Q.** For CN1CCc2cc(Cl)c(O)cc2[C@@H](c2ccccc2)C1 [SCH-23390, reference compound], which “decrease in mean arterial pressure” value [3] is on record?
**A.** Its value is 5±1 mmHg.

**Q.** Which “effect on blood pressure, enalapril alone” value (blood pressure) does the source give for CCOC(=O)[C@H](CCc1ccccc1)N[C@@H](C)C(=O)N1CCC[C@H]1C(=O)O [enalapril, reference compound] here?
**A.** Its value is “failed to lower blood pressure”.

**Q.** What about the “reduction in left ventricular mass, enalapril alone” value (blood pressure) of the same compound?
**A.** The value was “did not occur”.
